Source: US8309734B2 (Hoffmann-La Roche Inc., priority 2008, dated 2012)

Biological target: T1, human GPBAR1 receptor (Homo sapiens, UniProt Q8TDU6)
T1 construct: expressed in transfected cells
T1 sequence (Q8TDU6 1-330): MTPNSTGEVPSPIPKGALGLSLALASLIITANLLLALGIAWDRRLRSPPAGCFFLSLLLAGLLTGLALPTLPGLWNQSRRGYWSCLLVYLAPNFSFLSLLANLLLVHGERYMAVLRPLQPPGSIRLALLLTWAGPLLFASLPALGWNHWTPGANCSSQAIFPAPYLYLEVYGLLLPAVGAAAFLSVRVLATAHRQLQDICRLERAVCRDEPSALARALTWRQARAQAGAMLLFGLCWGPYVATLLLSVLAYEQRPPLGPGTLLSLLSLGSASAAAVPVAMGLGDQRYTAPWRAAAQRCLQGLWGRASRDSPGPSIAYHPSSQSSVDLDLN
Test: functional cAMP assay in CHO-dhfr(minus) cells expressing human GPBAR1 receptors
Type: cell-based
Details: cAMP increase (TR-FRET) in CHO-dhfr(minus) cells expressing human GPBAR1; compounds incubated 30 min at 30° C.
Protocol: The final clone was verified by DNA sequence analysis. The plasmid was transfected into CHO cells deficient in dihydrofolate reductase activity (CHO-dhfr-) using Lipofectamine plus (Invitrogen). Clones were isolated in limited dilution conditions and identified by activities in the cAMP assay using lithocholic acid as agonist.
The growth medium was exchanged with Krebs Ringer Bicarbonate buffer with 1 mM IBMX and incubated at 30° C. for 30 mM. Compounds were added to a final assay volume of 100 μl and incubated for 30 min at 30° C. […] The time-resolved energy transfer is measured by a TRF reader (Evotec Technologies GmbH, Hamburg Germany), equipped with a ND:YAG laser as excitation source. The plate is measured twice with the excitation at 355 nm and at the emission with a delay of 100 ns and a gate of 100 ns, total exposure time 10s at 730 (bandwith 30 nm) or 645 nm (bandwith 75 nm), respectively.
EC50 values were determined using Activity Base analysis (ID Business Solution, Limited). […] Specificity for GPBAR1 was tested in non-transfected CHO cells in the same assay as above.

| SMILES | EC50 [nM] |
| --- | --- |
| CN(C(=O)c1cccnc1Oc1cc(Cl)ccc1Cl)c1ncccc1Cl [Example 46, N-(3-Chloro-pyridin-2-yl)-2-(2,5-dichloro-phenoxy)-N-methyl-nicotinamide] | 905 |
| CN(C(=O)c1cccnc1Oc1cc(Cl)ccc1Cl)c1cnccc1Cl [Example 47, N-(4-Chloro-pyridin-3-yl)-2-(2,5-dichloro-phenoxy)-N-methyl-nicotinamide] | 1250 |
| Cc1ccc(Cl)cc1N(C)C(=O)c1cccnc1Oc1cc(Cl)ccc1Cl [Example 50, N-(5-Chloro-2-methyl-phenyl)-2-(2,5-dichloro-phenoxy)-N-methyl-nicotinamide] | 631 |
| COc1ccc(Cl)cc1N(C)C(=O)c1cccnc1Oc1cc(Cl)ccc1Cl [Example 55, N-(5-Chloro-2-methoxy-phenyl)-2-(2,5-dichloro-phenoxy)-N-methyl-nicotinamide] | 641 |
| Cc1cc(Cl)ccc1N(C)C(=O)c1cccnc1Oc1cc(Cl)ccc1Cl [Example 56, N-(4-Chloro-2-methyl-phenyl)-2-(2,5-dichloro-phenoxy)-N-methyl-nicotinamide] | 1390 |
| Cc1ccc(N(C)C(=O)c2cccnc2Oc2cc(Cl)ccc2Cl)c(C)c1 [Example 58, 2-(2,5-Dichloro-phenoxy)-N-(2,4-dimethyl-phenyl)-N-methyl-nicotinamide] | 758 |
| COc1ccc(C)cc1N(C)C(=O)c1cccnc1Oc1cc(Cl)ccc1Cl [Example 59, 2-(2,5-Dichloro-phenoxy)-N-(2-methoxy-5-methyl-phenyl)-N-methyl-nicotinamide] | 1550 |
| COc1cccc(OC)c1N(C)C(=O)c1cccnc1Oc1cc(Cl)ccc1Cl [Example 60, 2-(2,5-Dichloro-phenoxy)-N-(2,6-dimethoxy-phenyl)-N-methyl-nicotinamide] | 1550 |
| Cc1cc(Cl)ncc1N(C)C(=O)c1cccnc1Oc1cc(Cl)ccc1Cl [Example 61, N-(6-Chloro-4-methyl-pyridin-3-yl)-2-(2,5-dichloro-phenoxy)-N-methyl-nicotinamide] | 1980 |
| CN(C(=O)c1cccnc1Oc1cc(Cl)ccc1Cl)c1ccccc1C#N [Example 62, N-(2-Cyano-phenyl)-2-(2,5-dichloro-phenoxy)-N-methyl-nicotinamide] | 820 |
| CN(C(=O)c1cccnc1Oc1cc(Cl)ccc1Cl)c1ccc(F)cc1F [Example 66, 2-(2,5-Dichloro-phenoxy)-N-(2,4-difluoro-phenyl)-N-methyl-nicotinamide] | 518 |
| CC1CCc2ccccc2N1C(=O)c1cccnc1Oc1cc(Cl)ccc1Cl (stereo not drawn) [Example 67, [2-(2,5-Dichloro-phenoxy)-pyridin-3-yl]-(2-methyl-3,4-dihydro-2H-quinolin-1-yl)-methanone] | 1690 |
| Cc1cc(F)c2c(c1)CCCN2C(=O)c1cccnc1Oc1cc(Cl)ccc1Cl [Example 68, [2-(2,5-Dichloro-phenoxy)-pyridin-3-yl]-(8-fluoro-6-methyl-3,4-dihydro-2H-quinolin-1-yl)-methanone] | 837 |
| Cc1ccnc(Cl)c1N(C)C(=O)c1cccnc1Oc1cc(Cl)ccc1Cl [Example 69, N-(2-Chloro-4-methyl-pyridin-3-yl)-2-(2,5-dichloro-phenoxy)-N-methyl-nicotinamide] | 566 |
| COc1cccc2c1N(C(=O)c1cccnc1Oc1cc(Cl)ccc1Cl)CCC2 [Example 70, [2-(2,5-Dichloro-phenoxy)-pyridin-3-yl]-(8-methoxy-3,4-dihydro-2H-quinolin-1-yl)-methanone] | 561 |
| O=C(c1cccnc1Oc1cc(Cl)ccc1Cl)N1CCN(c2ccccc2)c2ccccc21 [Example 74, [2-(2,5-Dichloro-phenoxy)-pyridin-3-yl]-(4-phenyl-3,4-dihydro-2H-quinoxalin-1-yl)-methanone] | 1530 |
| COc1ccncc1N(C)C(=O)c1cccnc1Oc1cc(Cl)ccc1Cl [Example 75, 2-(2,5-Dichloro-phenoxy)-N-(4-methoxy-pyridin-3-yl)-N-methyl-nicotinamide] | 1580 |
| O=C(c1cccnc1Oc1ccc(Cl)cc1Cl)N1CCCc2ccccc21 [Example 76, [2-(2,4-Dichloro-phenoxy)-pyridin-3-yl]-(3,4-dihydro-2H-quinolin-1-yl)-methanone] | 1960 |
| Cc1ccc2c(c1)CCCN2C(=O)c1cccnc1Oc1ccc(F)c(Cl)c1 [Example 77, [2-(3-Chloro-4-fluoro-phenoxy)-pyridin-3-yl]-(6-methyl-3,4-dihydro-2H-quinolin-1-yl)-methanone] | 765 |

These reach a lower EC50. Values come first.

| EC50 [nM] | SMILES |
| --- | --- |
| 496 | CN(C(=O)c1cccnc1Oc1cc(Cl)ccc1Cl)c1ccccc1-c1ccccc1 [Example 43, N-Biphenyl-2-yl-2-(2,5-dichloro-phenoxy)-N-methyl-nicotinamide] |
| 436 | O=C(c1cccnc1Oc1cc(Cl)ccc1Cl)N1CCCc2cc(Cl)ccc21 [Example 71, (6-Chloro-3,4-dihydro-2H-quinolin-1-yl)-[2-(2,5-dichloro-phenoxy)-pyridin-3-yl]-methanone] |
| 418 | O=C(c1cccnc1Oc1cc(Cl)ccc1Cl)N1CCOc2c(F)cc(F)cc21 [Example 73, [2-(2,5-Dichloro-phenoxy)-pyridin-3-yl]-(6,8-difluoro-2,3-dihydro-benzo[1,4]oxazin-4-yl)-methanone] |
| 385 | Cc1cccc(N(C)C(=O)c2cccnc2Oc2cc(Cl)ccc2Cl)c1C [Example 57, 2-(2,5-Dichloro-phenoxy)-N-(2,3-dimethyl-phenyl)-N-methyl-nicotinamide] |
| 357 | CN(C(=O)c1cccnc1Oc1cc(Cl)ccc1Cl)c1ccccc1-n1cccc1 [Example 65, 2-(2,5-Dichloro-phenoxy)-N-methyl-N-(2-pyrrol-1-yl-phenyl)-nicotinamide] |
| 321 | COc1cccc(C)c1N(C)C(=O)c1cccnc1Oc1cc(Cl)ccc1Cl [Example 53, 2-(2,5-Dichloro-phenoxy)-N-(2-methoxy-6-methyl-phenyl)-N-methyl-nicotinamide] |
| 173 | Cc1c(Cl)cccc1N(C)C(=O)c1cccnc1Oc1cc(Cl)ccc1Cl [Example 49, N-(3-Chloro-2-methyl-phenyl)-2-(2,5-dichloro-phenoxy)-N-methyl-nicotinamide] |
| 170 | CN(C(=O)c1cccnc1Oc1cc(Cl)ccc1Cl)c1ccccc1F [Example 63, 2-(2,5-Dichloro-phenoxy)-N-(2-fluoro-phenyl)-N-methyl-nicotinamide] |
| 163 | O=C(c1cccnc1Oc1cc(Cl)ccc1Cl)N1CCOc2ccc(F)cc21 [Example 72, [2-(2,5-Dichloro-phenoxy)-pyridin-3-yl]-(6-fluoro-2,3-dihydro-benzo[1,4]oxazin-4-yl)-methanone] |
| 155 | CN(C(=O)c1cccnc1Oc1cc(Cl)ccc1Cl)c1c(F)cccc1F [Example 64, 2-(2,5-Dichloro-phenoxy)-N-(2,6-difluoro-phenyl)-N-methyl-nicotinamide] |
| 128 | O=C(c1cccnc1Oc1ccc(F)c(Cl)c1)N1CCCc2ncccc21 [Example 78, [2-(3-Chloro-4-fluoro-phenoxy)-pyridin-3-yl]-(3,4-dihydro-2H-[1,5]naphthyridin-1-yl)-methanone] |
| 116 | Cc1cccc(C)c1N(C)C(=O)c1cccnc1Oc1cc(Cl)ccc1Cl [Example 52, 2-(2,5-Dichloro-phenoxy)-N-(2,6-dimethyl-phenyl)-N-methyl-nicotinamide] |
| 103 | CN(C(=O)c1cccnc1Oc1cc(Cl)ccc1Cl)c1ccccc1Cl [Example 40, N-(2-Chloro-phenyl)-2-(2,5-dichloro-phenoxy)-N-methyl-nicotinamide] |
| 92 | CCc1ccccc1N(C)C(=O)c1cccnc1Oc1cc(Cl)ccc1Cl [Example 45, 2-(2,5-Dichloro-phenoxy)-N-(2-ethyl-phenyl)-N-methyl-nicotinamide] |
| 66 | COc1ncccc1N(C)C(=O)c1cccnc1Oc1cc(Cl)ccc1Cl [Example 48, 2-(2,5-Dichloro-phenoxy)-N-(2-methoxy-pyridin-3-yl)-N-methyl-nicotinamide] |
| 59 | Cc1cccc(Cl)c1N(C)C(=O)c1cccnc1Oc1cc(Cl)ccc1Cl [Example 51, N-(2-Chloro-6-methyl-phenyl)-2-(2,5-dichloro-phenoxy)-N-methyl-nicotinamide] |
| 44 | O=C(c1cccnc1Oc1cc(Cl)ccc1Cl)N1CCCc2cc(F)cc(F)c21 [Example 44, [2-(2,5-Dichloro-phenoxy)-pyridin-3-yl]-(6,8-difluoro-3,4-dihydro-2H-quinolin-1-yl)-methanone] |
| 35 | COc1ccc(F)cc1N(C)C(=O)c1cccnc1Oc1cc(Cl)ccc1Cl [Example 54, 2-(2,5-Dichloro-phenoxy)-N-(5-fluoro-2-methoxy-phenyl)-N-methyl-nicotinamide] |
| 33 | Cc1ccccc1N(C)C(=O)c1cccnc1Oc1cc(Cl)ccc1Cl [Example 41, 2-(2,5-Dichloro-phenoxy)-N-methyl-N-o-tolyl-nicotinamide] |
| 20 | COc1ccccc1N(C)C(=O)c1cccnc1Oc1cc(Cl)ccc1Cl [Example 42, 2-(2,5-Dichloro-phenoxy)-N-(2-methoxy-phenyl)-N-methyl-nicotinamide] |
